ChEMBL document CHEMBL3885861, “Open TG-GATES”

Organism: Rattus norvegicus
Assay: Open TG-GATES - Regimen: Daily Repeat
Type: toxicity, organism-based, Sprague-Dawley
Design: regimen Daily Repeat, gender Male, age 6 weeks
Conditions: in vivo, iv, route intravenous injection; for gamma-GTP / A/G / ALP / ALT / AST / BUN / CRE / Ca / Cl / DBIL / GLC / IP / K / LDH / Na / PL / RALB / TBIL / TC / TG / TP: tissue Plasma; for APTT / Bas / Eos / Fbg / Hb / Ht / Lym / MCH / MCHC / MCV / Mono / Neu / PT / Plat / RBC / Ret / WBC: tissue Blood; for KIDNEY_L / KIDNEY_R / KIDNEY_TOTAL: tissue Kidney; for LIVER: tissue Liver
[1] = 4 mg/kg, […], dose level Low, time 14 day
[2] = 4 mg/kg, […], dose level Low, time 28 day
[3] = 12 mg/kg, 72 h, dose level Middle, time 3 day
[4] = 12 mg/kg, […], dose level Middle, time 7 day
[5] = 12 mg/kg, […], dose level Middle, time 14 day
[6] = 12 mg/kg, […], dose level Middle, time 28 day

Q: Which results are given for `CN(C)c1ncnc2c1ncn2[C@@H]1O[C@H](CO)[C@@H](N)[C@H]1O` [PUROMYCIN AMINONUCLEOSIDE]?
A: gamma-GTP (4 mg/kg, […], dose level Low, time 7 day): 1.6 IU/L; A/G [1]: 1.1; ALP [1]: 1081.2 IU/L; ALT [1]: 35.8 IU/L; AST [1]: 64.2 IU/L; BUN [1]: 19.2 mg/dL; CRE [1]: 0.2 mg/dL; Ca [1]: 10.9 mg/dL; Cl [1]: 106.8 meq/L; DBIL [1]: 0 mg/dL; GLC [1]: 179.4 mg/dL; IP [1]: 6.8 mg/dL; K [1]: 4.2 meq/L; LDH [1]: 141.2 IU/L; Na [1]: 142.8 meq/L; PL [1]: 143.4 mg/dL; RALB [1]: 2.9 g/dL; TBIL [1]: 0.002 mg/dL; TC [1]: 76.8 mg/dL; TG [1]: 129.2 mg/dL; TP [1]: 5.5 g/dL; gamma-GTP [1]: 1.4 IU/L; A/G [2]: 0.7; ALP [2]: 666.2 IU/L; ALT [2]: 34.6 IU/L; AST [2]: 47 IU/L; BUN [2]: 17.2 mg/dL; CRE [2]: 0.2 mg/dL; Ca [2]: 10.4 mg/dL; Cl [2]: 104.2 meq/L; DBIL [2]: 0 mg/dL; GLC [2]: 181.8 mg/dL; IP [2]: 6.8 mg/dL; K [2]: 4.3 meq/L; LDH [2]: 134 IU/L; Na [2]: 142.4 meq/L; PL [2]: 334 mg/dL; RALB [2]: 2.2 g/dL; TBIL [2]: 0.006 mg/dL; TC [2]: 203.8 mg/dL; TG [2]: 254.2 mg/dL; TP [2]: 5.4 g/dL; gamma-GTP [2]: 1.2 IU/L; TERMINAL_BW [3]: 221.5 g; APTT [3]: 20.8 s; Bas [3]: 0%; Eos [3]: 1%; Fbg [3]: 305.2 mg/dL; Hb [3]: 13.2 g/dL; Ht [3]: 38.5%; Lym [3]: 86.2%; MCH [3]: 21 pg; MCHC [3]: 34.2%; MCV [3]: 61.4 fL; Mono [3]: 2%; Neu [3]: 9.8%; PT [3]: 16 s; Plat [3]: 119.7 x10_4/uL; RBC [3]: 626.8 x10_4/ul; Ret [3]: 4.3%; WBC [3]: 80.4 x10_2/uL; KIDNEY_L [3]: 0.9 g; KIDNEY_R [3]: 1 g; KIDNEY_TOTAL [3]: 1.9 g; LIVER [3]: 9.9 g; A/G [3]: 1.3; ALP [3]: 1198.8 IU/L; ALT [3]: 39.4 IU/L; AST [3]: 69.4 IU/L; BUN [3]: 20.8 mg/dL; CRE [3]: 0.2 mg/dL; Ca [3]: 11.2 mg/dL; Cl [3]: 104.6 meq/L; DBIL [3]: 0 mg/dL; GLC [3]: 174.4 mg/dL; IP [3]: 8.2 mg/dL; K [3]: 4.4 meq/L; LDH [3]: 145.6 IU/L; Na [3]: 141.2 meq/L; PL [3]: 133 mg/dL; RALB [3]: 3 g/dL; TBIL [3]: 0.016 mg/dL; TC [3]: 66.6 mg/dL; TG [3]: 67.4 mg/dL; TP [3]: 5.4 g/dL; gamma-GTP [3]: 1.8 IU/L; TERMINAL_BW [4]: 243.7 g; TERMINAL_BW [5]: 292.3 g; TERMINAL_BW [6]: 237.1 g; APTT [4]: 21 s; Bas [4]: 0%; Eos [4]: 1%; Fbg [4]: 304.2 mg/dL; Hb [4]: 13.5 g/dL; Ht [4]: 38.5%; Lym [4]: 74.4%; MCH [4]: 20.6 pg; MCHC [4]: 35%; MCV [4]: 58.9 fL; Mono [4]: 2.6%; Neu [4]: 21.6%; PT [4]: 15.8 s; Plat [4]: 107.5 x10_4/uL; RBC [4]: 653.8 x10_4/ul; Ret [4]: 3.3%; WBC [4]: 93.9 x10_2/uL; APTT [5]: 18.6 s; Bas [5]: 0%; Eos [5]: 0.8%; Fbg [5]: 561 mg/dL; Hb [5]: 13.1 g/dL; Ht [5]: 35.4%; Lym [5]: 78.2%; MCH [5]: 20.3 pg; MCHC [5]: 36.9%; MCV [5]: 55.1 fL; Mono [5]: 2.8%; Neu [5]: 17%; PT [5]: 13.1 s; Plat [5]: 181.7 x10_4/uL; RBC [5]: 641.8 x10_4/ul; Ret [5]: 1.3%; WBC [5]: 140.4 x10_2/uL; APTT [6]: 15.1 s; Bas [6]: 0%; Eos [6]: 0.5%; Fbg [6]: 627 mg/dL; Hb [6]: 9.5 g/dL; Ht [6]: 23.8%; Lym [6]: 60.8%; MCH [6]: 18.8 pg; MCHC [6]: 40%; MCV [6]: 46.9 fL; Mono [6]: 5.2%; Neu [6]: 32%; PT [6]: 15.2 s; Plat [6]: 137.6 x10_4/uL; RBC [6]: 498.2 x10_4/ul; Ret [6]: 0.5%; WBC [6]: 106.1 x10_2/uL; KIDNEY_L [4]: 1 g; KIDNEY_R [4]: 1 g; KIDNEY_TOTAL [4]: 2 g; KIDNEY_L [5]: 1.6 g; KIDNEY_R [5]: 1.6 g; KIDNEY_TOTAL [5]: 3.2 g; KIDNEY_L [6]: 2.3 g; KIDNEY_R [6]: 2.3 g; KIDNEY_TOTAL [6]: 4.6 g; LIVER [4]: 10.4 g
